Assay results taken from paper PMC9540667, “Novel insights on [1,2]oxazolo[5,4‐e]isoindoles on multidrug resistant acute myeloid leukemia cell line” (Drug Development Research, 2022).

How the values were obtained:
HL‐60 cells = assay: Cell growth assay (MTS), HL-60 cells; assay type: cell-based; details: Homo sapiens, HL-60, 72 h of treatment, mean ± SE
Procedure: (§1) HL‐60 cells were obtained from ATCC® (CCL‐240), whereas its variant HL‐60R was selected for MDR by exposure to gradually increasing concentrations of doxorubicin. MCF‐7 cells were obtained from ATCC® (HTB‐22). The nontumorigenic cell lines hTERT‐RPE‐1 (ATCC, CRL‐4010) and 1‐7HB2 (ECACC 10081201‐Cancer Research Technology) was kindly provided by Prof. Patrizia Cancemi and Prof. Giulio Ghersi (STEBICEF Department, University of Palermo, Italy), respectively. Cells were cultured in a humidified atmosphere at 37°C in 5% CO2. After obtaining the cells, the first passage carried out was assigned passage number 1. Cells with a narrow range of passage number […] were routinely tested for Mycoplasma contamination and were used for all experiments. HL‐60 and HL‐60R cells were cultured in Roswell Park Memorial Institute (RPMI) 1640, while MCF‐7, hTERT‐RPE‐1, and 1‐7HB‐2 cells were cultured in Dulbecco's Modified Eagle Medium (DMEM) (HyClone Europe Ltd.) low glucose, in particular only for 1‐7HB‐2 cells supplemented with hydrocortisone (5 μg/ml) and insulin (10 μg/ml). All media were supplemented with 10% heat‐inactivated fetal calf serum, 2 mM L‐glutamine, 100 U/ml penicillin, and 100 μg/ml streptomycin (all reagents were from EuroClone S.p.A.; GE Healthcare Life Sciences).
(§2) Cells were seeded at 5 × 10^3 cells/well onto 96 well plates and incubated overnight at 37°C. At time 0, the medium was replaced with fresh complete medium supplemented with the [1,2]oxazolo[5,4‐e]isoindoles at large concentrations range. Following 72 h of treatment, 15 µl commercial solution obtained from Promega Corp. containing 3‐(4,5‐dimethylthiazol‐2‐yl)−5‐(3‐carboxymethoxyphenyl)−2‐(4‐sulphophenyl)−2H‐tetrazolium (MTS) and phenazine ethosulfate was added. The plates were incubated in a humidified atmosphere at 37°C in 5% CO2 for 2 h, and the bioreduction of MTS dye was evaluated by measuring the absorbance of each well at 490 nm using a microplate absorbance reader (iMark Microplate Reader; Bio‐Rad Laboratories, Inc.). Cell growth inhibition was expressed as a percentage of the absorbance of the control cells. Data were expressed as mean ± standard error (SE) of at least three different experiments performed in triplicate.

HL‐60R cells [1] = assay: Cell growth assay (MTS), HL-60R MDR variant; assay type: cell-based; details: HL60R, 72 h of treatment, mean ± SE
Procedure: as §1, §2

MCF‐7 cells = assay: Cell growth assay (MTS), MCF-7 breast cancer cells; assay type: cell-based; details: Homo sapiens, MCF7, 72 h, the maximum concentration used in the MTS assay is reported
Procedure: as §1, §2

hTERT‐RPE‐1 cells = assay: Cell growth assay (MTS), non-tumorigenic hTERT-RPE-1 cells; assay type: cell-based; details: hTERT-RPE1, 72 h, the maximum concentration used in the MTS assay is reported, read-out: h‐TERT‐RPE‐1 (IC50)
Procedure: as §1, §2

1‐7HB2 cells = assay: Cell growth assay (MTS), non-tumorigenic 1-7HB2 cells; assay type: cell-based; details: 72 h, the maximum concentration used in the MTS assay is reported
Procedure: as §1, §2

HL‐60R cells [2] = assay: Viable cell count with Trypan blue exclusion test (cotreatments); assay type: cell-based
Procedure: Potentiation or synergism due to cotreatments were evaluated by viable cell count with Trypan blue exclusion test. Data were expressed as mean ± SE of at least three different experiments performed in duplicate.

HL‐60R cells [3] = assay: Cell death by flow cytometry (propidium iodide, preG0-G1 events); assay type: cell-based
Procedure: Cells were collected and washed twice with ice‐cold PBS and then resuspended in a hypotonic fluorochrome solution containing propidium iodide (PI) 50 µg/ml in 0.1% sodium citrate plus 0.03% (v/v) Nonidet P‐40, at 1 × 10^6/ml. After incubation (at least 1 h at 4°C) in this solution, the samples were filtered through nylon cloth, 40 µm mesh, and their fluorescence was analyzed using a FACSCanto instrument (Becton Dickinson). The data were analyzed with BD FACSDiva software v.6.1.2. (Becton Dickinson). Cell death was determined by evaluating the percentage of events accumulated in the preG0‐G1 position.

HL‐60R cell line = assay: Intracellular accumulation of doxorubicin (flow cytometry); assay type: cell-based
Procedure: The effects of 4e and 4k on intracellular accumulation of doxorubicin were evaluated in the HL‐60R cell line. […] After 24 h of incubation doxorubicin 2 µM was added for 1 h. The cells were subsequently washed with PBS twice and then resuspended in a final volume of 400 µl of PBS. The fluorescence intensity of doxorubicin was measured by flow cytometry using a FACSAria III instrument (Becton Dickinson).

[4] = target: T1, recombinant human P‐gp membranes (Homo sapiens, UniProt P08183); assay: P-gp ATPase activity (Pgp-Glo assay); assay type: biochemical; details: compound at its IC50; verapamil 0.5 mM
T1 construct: purchased Promega
T1 sequence (P08183 whole entry): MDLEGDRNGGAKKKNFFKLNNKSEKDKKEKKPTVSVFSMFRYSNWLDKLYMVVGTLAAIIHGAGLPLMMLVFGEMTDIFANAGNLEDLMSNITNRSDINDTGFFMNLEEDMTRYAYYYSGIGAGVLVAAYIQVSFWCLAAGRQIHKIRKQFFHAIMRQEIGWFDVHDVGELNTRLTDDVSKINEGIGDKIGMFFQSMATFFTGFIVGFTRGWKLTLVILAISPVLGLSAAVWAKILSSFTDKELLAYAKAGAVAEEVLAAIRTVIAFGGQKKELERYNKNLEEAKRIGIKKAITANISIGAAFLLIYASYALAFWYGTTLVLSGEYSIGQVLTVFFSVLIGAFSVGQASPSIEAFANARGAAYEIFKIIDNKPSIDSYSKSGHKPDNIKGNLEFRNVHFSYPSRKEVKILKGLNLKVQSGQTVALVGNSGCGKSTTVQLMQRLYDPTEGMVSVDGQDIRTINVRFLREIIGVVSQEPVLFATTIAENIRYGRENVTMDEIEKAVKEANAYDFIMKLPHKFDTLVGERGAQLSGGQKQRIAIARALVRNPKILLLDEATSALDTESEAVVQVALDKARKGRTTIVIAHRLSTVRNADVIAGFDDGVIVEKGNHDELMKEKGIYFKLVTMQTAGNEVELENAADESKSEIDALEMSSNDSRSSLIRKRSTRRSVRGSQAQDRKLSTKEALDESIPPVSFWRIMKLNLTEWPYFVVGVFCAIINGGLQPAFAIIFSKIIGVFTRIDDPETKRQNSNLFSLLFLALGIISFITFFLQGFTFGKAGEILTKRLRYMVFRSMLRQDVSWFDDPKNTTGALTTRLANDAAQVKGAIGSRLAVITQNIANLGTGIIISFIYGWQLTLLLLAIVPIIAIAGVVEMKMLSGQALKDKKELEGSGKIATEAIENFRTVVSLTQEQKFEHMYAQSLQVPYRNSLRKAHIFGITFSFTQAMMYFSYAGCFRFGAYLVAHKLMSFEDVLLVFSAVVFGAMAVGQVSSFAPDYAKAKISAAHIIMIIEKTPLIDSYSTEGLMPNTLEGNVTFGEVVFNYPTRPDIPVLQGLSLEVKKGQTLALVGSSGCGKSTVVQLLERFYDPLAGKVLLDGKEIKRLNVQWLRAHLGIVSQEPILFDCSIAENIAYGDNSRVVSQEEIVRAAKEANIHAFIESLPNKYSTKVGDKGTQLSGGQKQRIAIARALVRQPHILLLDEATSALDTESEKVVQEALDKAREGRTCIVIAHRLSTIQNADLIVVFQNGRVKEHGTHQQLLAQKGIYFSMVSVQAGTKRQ
Procedure: P‐gp ATPase activity was performed with Pgp‐Glo™ Assay Systems (Promega) following manufacturer's instructions. The compounds 4e and 4k, at their IC50s (test compound [TC]) were added to a 96‐well white plate in duplicate and incubated with recombinant human P‐gp membranes. The compound Na3VO4 (0.25 mM) was used as the selective inhibitor of P‐gp ATPase activity while negative control (no treatment [NT]) with only Pgp‐GLO assay buffer was used to provide a measure of unregulated ATPase activity. Verapamil (0.5 mM) is a P‐gp substrate that stimulates P‐gp ATPase activity and represents the positive control for drug stimulation of P‐gp ATPase activity. In fact, it is not a pure inhibitor of P‐gp function as well as Na3VO4, but in association with another P‐gp substrate like doxorubicin, it behaves as a competitive antagonist, that is, an efflux inhibitor. […]
Luminescence was measured using a GLOMAX Multidetection System (Promega). The data were presented as change in luminescence (ΔRLU), calculated as follows: ΔRLUbasal is the difference between the average luminescent signals from Na3VO4‐treated samples (RLUNa3VO4) and untreated (NT) samples (RLUNT), ΔRLUTC that reflects P‐gp ATPase activity in the presence of the test compounds, is the difference between the average luminescent signals from Na3VO4‐treated samples (RLUNa3VO4) and test compound‐treated samples (RLUTC).

tubulin in HL‐60 cells = assay: Tubulin polymerization assay (soluble/polymerized fraction, western blot), HL-60; assay type: cell-based; details: HL-60, 24 h at the IC50 at 72 h
Procedure: (§3) To separate cytosolic and cytoskeletal‐associated proteins, cells were rinsed in PEM buffer (0.1 M PIPES, pH 6.94; 2 mM EGTA; 1 mM MgCl2; 10% glycerol; 1 µM protease inhibitors cocktail; 0.5% Nonidet NP‐40), lysed at room temperature for 10 min with the same buffer (200 µl). After centrifugation (14,000 rpm at 4°C for 10 min), the soluble fraction (supernatant) was separated from polymerized fraction (pellet); the latter was resuspended in the same buffer (200 µl).
(§4) Both the fractions were then diluted 3:1 with 4 × SDS‐PAGE sample buffer. Proteins were separated by SDS‐PAGE, and tubulin distribution was analyzed by immunoblotting using anti‐α‐tubulin antibody (Sigma‐Aldrich). Hybridization was visualized using an enhanced chemiluminescence detection kit (SuperSignal West Femto Maximum Sensitivity Substrate, Thermo Scientific Life Technologies Italia) and the Versa DOC imaging system (BioRad Laboratories).

tubulin in HL‐60R cells = assay: Tubulin polymerization assay (soluble/polymerized fraction, western blot), HL-60R; assay type: cell-based; details: 24 h at the IC50 at 72 h
Procedure: as §3, §4

[5] = tested on: XIAP, IAP‐1, Bcl‐2 in HL‐60R cells; assay: Western blot of antiapoptotic factors (survivin, XIAP, IAP-1, Bcl-2); assay type: cell-based; details: co-treatment of 4k and PTX
Procedure: Whole‐cell lysates were obtained from HL‐60R cells using RIPA buffer (Santa Cruz Biotechnology Inc.) and 25 µg protein was subjected to 10% SDS‐PAGE and transferred to nitrocellulose membrane (Amersham, Pharmacia Biotech) using a semi‐dry fast blot apparatus (Bio‐Rad). Membranes were blocked with 5% (w/v) BSA in PBS‐0.1% (v/v) Tween 20 for 1 h and then filters were incubated with primary antibodies raised against GAPDH (1:20,000; Sigma‐Aldrich Srl Milan), XIAP (1:500; Cell Signaling Technology, Inc), survivin (1:2000; Abcam Limited), Bcl‐2 (1:1000; Santa Cruz Biotechnology Inc.) and IAP‐1 (1:1000; Cell Signaling Technology, Inc). Hybridization was visualized using an enhanced chemiluminescence detection kit (SuperSignal West Femto Maximum Sensitivity Substrate, Thermo Scientific Life Technologies Italia) and the Versa DOC imaging system (BioRad Laboratories). Immunoblots were quantified by densitometry measurements after normalization with glyceraldehyde‐3‐phosphate dehydrogenase and results were expressed as fold changes.

Row | Structure (SMILES) | IC50 (HL‐60 cells) [nM] | IC50 (HL‐60R cells [1]) [nM] | IC50 (MCF‐7 cells) [nM] | IC50 (hTERT‐RPE‐1 cells) [nM] | IC50 (1‐7HB2 cells) [nM] | synergistic / potentiation effect with the reference drugs (VIN or PTX) (HL‐60R cells [2]; cotreatment at sub-cytotoxic concentrations) | synergistic effect in induction of cell death (HL‐60R cells [3]; HL-60R, in combination with PTX and VIN) | Fluorescence (%) HL‐60R (HL‐60R cell line; 5.50 µM for 24 h, without doxorubicin) [%] | Fluorescence (%) HL‐60R (intracellular accumulation of doxorubicin) (HL‐60R cell line; pretreated 5.50 µM for 24 h + Doxo 2 µM 1 h) [%] | effect on verapamil‐stimulated P‐gp ATPase activity [4] | effect on soluble / polymerized tubulin fraction (tubulin in HL‐60 cells) | effect on soluble / polymerized tubulin fraction (tubulin in HL‐60R cells) | protein expression of antiapoptotic factors XIAP, IAP‐1 and Bcl‐2 [5] | inhibition at 1 µM (HL‐60R cells [2]; HL60R, 48 h, alone at 1 µM, read-out: Cell growth inhibition (%)) [%] | Percentage of events accumulated in the pre G0‐G1 position (cell death) (HL‐60R cells [3]; 48 h, 1 µM) [%]
1 | COc1ccc(Cn2cc3c(c2-c2cc(OC)c(OC)c(OC)c2)CCc2cnoc2-3)cc1OC [4k, 7‐(3,4‐dimethoxybenzyl)−6‐(3,4,5‐trimethoxyphenyl)−5,7‐dihydro‐4H‐[1,2]oxazolo[5,4‐e]isoindole] | 3000 ± 250 | 5500 ± 1400 | > 50000 | > 20000 | > 20000 | synergistic effect | strong synergistic effect | 0.3 ± 0.1 | 22.5 ± 1.1 | significative increase | increasing the soluble fraction of tubulin | increasing the soluble fraction of tubulin | substantial protein expression decrease | – | –
2 | CC(=O)O[C@H]1C(=O)[C@@]2(C)[C@H]([C@H](OC(=O)c3ccccc3)[C@]3(O)C[C@H](OC(=O)[C@H](O)[C@@H](NC(=O)c4ccccc4)c4ccccc4)C(C)=C1C3(C)C)[C@]1(OC(C)=O)CO[C@@H]1C[C@@H]2O [Paclitaxel, reference compound] | 20 ± 40 | 1300 ± 140 | – | – | – | – | – | – | – | – | marked increase in the polymerized fraction | marked increase in the polymerized fraction | – | 13 ± 9.2 | 7.6
